Source: patent US20240246918A1, “COMPOUNDS AND COMPOSITIONS AS EIF4E INHIBITORS AND THE USES THEREOF” (Ribometrix, Inc., priority 2022, published 2024)

What was measured:
human eIF4E protein = biological target: T1, human eIF4E protein (Homo sapiens, UniProt P06730); experiment: Biochemical competitive binding assay (TR-FRET competition, EDA-m7GDP-ATTO-647N probe); details: read-out: hEIF4E TR-FRET IC50
T1 construct: purchased Novus NBP-45314
Outline: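 His-tagged human eIF4E (4 nM) was preincubated with Eu-anti-His antibody (2.5 nM) and added to compound (11-point, 4-fold dilutions) for 15 min. Then 5 nM EDA-m7GDP-ATTO-647N was added for 15 min, in HEPES pH 7.5, 100 mM KCl. The 665/620 TR-FRET ratio was normalized to controls, and IC50 was taken from 4-parameter fits.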

[1] = test system: cyclin D1 protein levels in COLO 205 cells; experiment: Cyclin D1 cellular inhibition assay (HTRF, 6 hours); format: cell-based; details: Homo sapiens, COLO 205, 6 h, 6 hours of compound treatment, Cyclin D1 protein levels by HTRF, read-out: COLO 205 6 h Cyclin D1 TR-FRET IC50
Method: The effect of compound treatment on cyclin D1 protein levels in COLO 205 cells was assessed, as follows. Test compound plates were prepared with a Tecan D300e Digital Dispenser as 11-point concentration-response curves with a final DMSO concentration of 1%. COLO 205 (ATCC, CCL-222) colorectal tumor cells were seeded to assay-ready plates in RPMI-1640 medium supplemented with 10% FBS at 20,000 cells in a volume of 6 microliters per well. After 6 hours of compound treatment, cells were lysed and Cyclin D1 protein levels were assessed by an HTRF assay (PerkinElmer #64CYCD1ITPEG), according to the manufacturer's protocol. Time-resolved fluorescence was measured using a Clariostar Plus microplate reader (BMG Labtech) or equivalent. After normalization to the average of DMSO control and maximum inhibition control wells, concentration-response data were plotted and standard 4-parameter curve fitting (GraphPad Prism v9.4.1) was utilized to determine IC50 values.

[2] = test system: COLO 205 colorectal tumor cells; experiment: Tumor cell viability inhibition assay (CellTiter-Glo 2.0, 72 hours); format: cell-based; details: Homo sapiens, COLO 205, 72 h, COLO 205 cell viability
Outline: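 COLO 205 cells (1500/well, RPMI-1640 + 10% FBS) exposed for 72 h to an 11-point, 4-fold dilution series; cellular ATP read by CellTiter-Glo 2.0 luminescence. Data normalized to DMSO and maximum-inhibition controls; IC50 from 4-parameter curve fit.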

T1 sequence (P06730 whole entry): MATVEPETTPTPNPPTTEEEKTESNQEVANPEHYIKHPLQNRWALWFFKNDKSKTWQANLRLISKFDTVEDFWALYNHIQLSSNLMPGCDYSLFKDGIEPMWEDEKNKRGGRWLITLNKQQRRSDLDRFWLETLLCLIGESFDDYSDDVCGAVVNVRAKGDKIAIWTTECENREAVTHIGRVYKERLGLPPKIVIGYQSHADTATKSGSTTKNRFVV

| Compound | IC50 (human eIF4E protein) [µM] | IC50 [1] [µM] | IC50 [2] [µM] |
| --- | --- | --- | --- |
| Cc1cc(-c2cc(Cl)ccc2OCCn2c(C)nc3c(c2=O)CC(N2CCc4cccnc4C2)CC3)c2scc(C(=O)O)c2n1 (stereo not drawn) [Compound 165] | < 0.1 | < 5 | < 5 |
| Cc1cc(-c2cc(Cl)ccc2OCCn2c(C)nc3c(c2=O)CC(N2CCC4(CCC(F)(F)CC4)C2)CC3)c2scc(C(=O)O)c2n1 (stereo not drawn) [Compound 170] | < 0.1 | < 5 | < 5 |
| Cc1cc(-c2cc(Cl)ccc2OCCn2c(C)nc3c(c2=O)CC(N2CCc4ccncc4C2)CC3)c2scc(C(=O)O)c2n1 (stereo not drawn) [Compound 171] | < 0.1 | < 5 | < 5 |
| Cc1cc(-c2cc(Cl)ccc2OCCn2c(C)nc3c(c2=O)CC(N2CC4C(C2)C4(F)F)CC3)c2scc(C(=O)O)c2n1 (stereo not drawn) [Compound 172] | < 0.1 | < 5 | < 5 |
| Cc1cc(-c2cc(Cl)ccc2OCCn2c(C)nc3c(c2=O)CC(N(C)Cc2cccc(N)n2)CC3)c2scc(C(=O)O)c2n1 (stereo not drawn) [Compound 173] | < 0.1 | > 20 | 5 to 20 |
| Cc1cc(-c2cc(Cl)ccc2OCCn2c(C)nc3c(c2=O)CC(N2CCC4(CC2)CC4(F)F)CC3)c2scc(C(=O)O)c2n1 (stereo not drawn) [Compound 174] | < 0.1 | < 5 | < 5 |
| Cc1cc(-c2cc(Cl)ccc2OCCn2c(C)nc3c(c2=O)CC(N2C[C@@H]4CC(F)(F)C[C@@H]4C2)CC3)c2scc(C(=O)O)c2n1 (stereo partly drawn) [Compound 175] | < 0.1 | < 5 | < 5 |
| Cc1cc(-c2cc(Cl)ccc2OCCn2c(C)nc3c(c2=O)CC(N2CC4CCC(C4)C2)CC3)c2scc(C(=O)O)c2n1 (stereo not drawn) [Compound 176] | < 0.1 | < 5 | < 5 |
| Cc1cc2c(cn1)CCN(C1CCc3nc(C)n(CCOc4ccc(Cl)cc4-c4cc(C)nc5c(C(=O)O)csc45)c(=O)c3C1)C2 (stereo not drawn) [Compound 177] | < 0.1 | < 5 | < 5 |
| Cc1cc(-c2cc(Cl)ccc2OCCn2c(C)nc3c(c2=O)CC(N2CCC(OC(F)(F)F)CC2)CC3)c2scc(C(=O)O)c2n1 (stereo not drawn) [Compound 178] | < 0.1 | < 5 | < 5 |
| Cc1cc(-c2cc(Cl)ccc2OCCn2c(C)nc3c(c2=O)CC(N2CCC(OC4CC4)CC2)CC3)c2scc(C(=O)O)c2n1 (stereo not drawn) [Compound 179] | < 0.1 | < 5 | < 5 |
| Cc1cc(-c2cc(Cl)ccc2OCCn2c(C)nc3c(c2=O)CC(N2CCc4ncccc4C2)CC3)c2scc(C(=O)O)c2n1 (stereo not drawn) [Compound 180] | < 0.1 | < 5 | < 5 |
| Cc1cc(-c2cc(Cl)ccc2OCCn2c(C)nc3c(c2=O)CC(N2CCc4sccc4C2)CC3)c2scc(C(=O)O)c2n1 (stereo not drawn) [Compound 181] | < 0.1 | < 5 | < 5 |
| Cc1csc(CN(C)C2CCc3nc(C)n(CCOc4ccc(Cl)cc4-c4cc(C)nc5c(C(=O)O)csc45)c(=O)c3C2)n1 (stereo not drawn) [Compound 182] | < 0.1 | < 5 | < 5 |
| Cc1cc(-c2cc(Cl)ccc2OCCn2c(C)nc3c(c2=O)CC(N(C)Cc2cnc(C)s2)CC3)c2scc(C(=O)O)c2n1 (stereo not drawn) [Compound 185] | < 0.1 | < 5 | < 5 |
| Cc1cc(-c2cc(Cl)ccc2OCCn2c(C)nc3c(c2=O)CC(N(C)Cc2cc[nH]n2)CC3)c2scc(C(=O)O)c2n1 (stereo not drawn) [Compound 186] | < 0.1 | > 20 | > 20 |
| Cc1cc(-c2cc(Cl)ccc2OCCn2c(C)nc3c(c2=O)CC(N(C)Cc2cncnc2)CC3)c2scc(C(=O)O)c2n1 (stereo not drawn) [Compound 187] | < 0.1 | 5 to 20 | < 5 |
| Cc1cc(-c2cc(Cl)ccc2OCCn2c(C)nc3c(c2=O)CC(N(C)Cc2ccnnc2)CC3)c2scc(C(=O)O)c2n1 (stereo not drawn) [Compound 188] | < 0.1 | > 20 | > 20 |
| Cc1cc(-c2cc(Cl)ccc2OCCn2c(C)nc3c(c2=O)CC(N(C)Cc2ncc[nH]2)CC3)c2scc(C(=O)O)c2n1 (stereo not drawn) [Compound 190] | < 0.1 | > 20 | > 20 |
| Cc1cc(-c2cc(Cl)ccc2OCCn2c(C)nc3c(c2=O)CC(N(C)Cc2ccsc2)CC3)c2scc(C(=O)O)c2n1 (stereo not drawn) [Compound 191] | < 0.1 | < 5 | < 5 |

| Compound | IC50 (human eIF4E protein) [µM] | IC50 [1] [µM] | IC50 [2] [µM] |
| --- | --- | --- | --- |
| Cc1cc(-c2cc(Cl)ccc2OCCn2c(C)nc3c(c2=O)CC(N2CCC4(CC2)CC4)CC3)c2scc(C(=O)O)c2n1 (stereo not drawn) [Compound 192] | < 0.1 | < 5 | < 5 |
| Cc1cc(-c2cc(Cl)ccc2OCCn2c(C)nc3c(c2=O)CC(N(C)[C@H]2C[C@](C)(O)C2)CC3)c2scc(C(=O)O)c2n1 (stereo partly drawn) [Compound 193] | < 0.1 | > 20 | > 20 |
| Cc1cc(-c2cc(Cl)ccc2OCCn2c(C)nc3c(c2=O)CC(N2CCC4(C2)CC(F)(F)C4)CC3)c2scc(C(=O)O)c2n1 (stereo not drawn) [Compound 194] | < 0.1 | < 5 | < 5 |
| Cc1cc(-c2cc(Cl)ccc2OCCn2c(C)nc3c(c2=O)CC(N2CC4(C2)CC(O)(C(F)(F)F)C4)CC3)c2scc(C(=O)O)c2n1 (stereo not drawn) [Compound 195] | < 0.1 | > 20 | > 20 |
| Cc1cc(-c2cc(Cl)ccc2OCCn2c(C)nc3c(c2=O)CC(N(C)Cc2cccnc2)CC3)c2scc(C(=O)O)c2n1 (stereo not drawn) [Compound 196] | < 0.1 | < 5 | < 5 |
| Cc1cc(-c2cc(Cl)ccc2OCCn2c(C)nc3c(c2=O)CC(N(C)Cc2cccs2)CC3)c2scc(C(=O)O)c2n1 (stereo not drawn) [Compound 197] | < 0.1 | < 5 | < 5 |
| Cc1cc(-c2cc(Cl)ccc2OCCn2c(C)nc3c(c2=O)CC(N(C)Cc2ccnc(C(F)(F)F)c2)CC3)c2scc(C(=O)O)c2n1 (stereo not drawn) [Compound 198] | < 0.1 | < 5 | < 5 |
| Cc1cc(-c2cc(Cl)ccc2OCCn2c(C)nc3c(c2=O)CC(N(C)Cc2cnccn2)CC3)c2scc(C(=O)O)c2n1 (stereo not drawn) [Compound 199] | < 0.1 | < 5 | < 5 |
| Cc1cc(-c2cc(Cl)ccc2OCCn2c(C)nc3c(c2=O)CC(N(C)Cc2ccccn2)CC3)c2scc(C(=O)O)c2n1 (stereo not drawn) [Compound 200] | < 0.1 | < 5 | < 5 |
| Cc1cc(-c2cc(Cl)ccc2OCCn2c(C)nc3c(c2=O)CC(N(C)Cc2ccc(C(F)(F)F)cc2)CC3)c2scc(C(=O)O)c2n1 (stereo not drawn) [Compound 201, 7-(5-chloro-2-(2-(2-methyl-6-(methyl(4-(trifluoromethyl)benzyl)amino)-4-oxo-5,6,7,8-tetrahydroquinazolin-3(4H)-yl)ethoxy)phenyl)-5-methylthieno[3,2-b]pyridine-3-carboxylic acid] | < 0.1 | < 5 | < 5 |
| Cc1cc(-c2cc(Cl)ccc2OCCn2c(C)nc3c(c2=O)CC(N(C)Cc2ncccn2)CC3)c2scc(C(=O)O)c2n1 (stereo not drawn) [Compound 202] | < 0.1 | 5 to 20 | > 20 |
| Cc1cc(-c2cc(Cl)ccc2OCCn2c(C)nc3c(c2=O)CC(N(C)C2CC4(C2)CC(F)(F)C4)CC3)c2scc(C(=O)O)c2n1 (stereo not drawn) [Compound 203] | < 0.1 | < 5 | < 5 |
| Cc1cc(-c2cc(Cl)ccc2OCCn2c(C)nc3c(c2=O)CC(N(C)C[C@H]2C[C@@H](C(F)(F)F)C2)CC3)c2scc(C(=O)O)c2n1 (stereo partly drawn) [Compound 204] | < 0.1 | < 5 | < 5 |
| Cc1cc(-c2cc(Cl)ccc2OCCn2c(C)nc3c(c2=O)CC(N(C)CC24CC(C2)C4)CC3)c2scc(C(=O)O)c2n1 (stereo not drawn) [Compound 205] | < 0.1 | < 5 | < 5 |
| Cc1cc(-c2cc(Cl)ccc2OCCn2c(C)nc3c(c2=O)CC(N2CCC(OCCO)CC2)CC3)c2scc(C(=O)O)c2n1 (stereo not drawn) [Compound 208] | < 0.1 | > 20 | > 20 |
| Cc1cc(-c2cc(Cl)ccc2OCCn2c(C)nc3c(c2=O)CC(N2CCC(C)(O)CC2)CC3)c2scc(C(=O)O)c2n1 (stereo not drawn) [Compound 209] | < 0.1 | > 20 | > 20 |
| Cc1cc(-c2cc(Cl)ccc2OCCn2c(C)nc3c(c2=O)CC(N2CCC4(CC2)CC(O)(C(F)(F)F)C4)CC3)c2scc(C(=O)O)c2n1 (stereo not drawn) [Compound 212] | < 0.1 | 5 to 20 | 5 to 20 |
| Cc1nc2c(c(=O)n1CCOc1ccc(Cl)cc1-c1ccnc(C(=O)O)c1)CC(N(C)CC1CC(F)(F)C1)CC2 (stereo not drawn) [Compound 219] | < 0.1 | > 20 | > 20 |
| Cc1cc(-c2cc(Cl)ccc2OCCn2c(C)nc3c(c2=O)CC(N(C)Cc2cccc(OC(F)(F)F)c2)CC3)c2scc(C(=O)O)c2n1 (stereo not drawn) [Compound 222] | < 0.1 | < 5 | < 5 |
